# Assay results from patent US9150586B2, “Piperidino-dihydrothienopyrimidine sulfoxides and their use for treating COPD and asthma” (Boehringer Ingelheim International GmbH, priority 2011, dated 2015).
# “Also recorded” adds a separate entry of the source.
# Legend:
# [1] = system: LPS-induced neutrophil influx into bronchoalveolar lavage fluid; test: LPS-induced lung inflammation model: inhibition of LPS-induced neutrophil influx into bronchoalveolar lavage fluid; format: in vivo, male Wistar rats; conditions: for ED50 (half-maximal effective dose), inhibition of LPS-induced neutrophil influx into BALF: male Wistar rats, oral by gavage, BALF 4 hours after end of LPS exposure, nonlinear fit; for ED50 found in efficacy studies in the rat (restated in dose table): p.o., LPS-induced neutrophil influx
# Procedure: The anti-inflammatory activity of Examples 1 and 2 and of Prior art compounds A and D was assessed in an in vivo LPS-induced lung inflammation model in rats.
# As a measure of the pharmacological potency of the above mentioned compounds the half-maximal effective dose (ED50) in regard to the inhibition of lipopolysaccharide-induced (LPS-induced) neutrophil influx into the bronchoalveolar lavage fluid (BALF) was determined by assessing the dose response relationship. Bacterial endotoxins (lipopolysaccharides [LPS]) are components of the outer bacterial cell membrane which play an important role in the pathogenesis of infections with gram-negative bacteria. It is known that inhalation of such aerosolized LPS induces a dose-dependent increase in neutrophils to lung tissues and airspaces in rats which may be detected by analyzing the amount of neutrophils in the bronchoalveolar lavage fluid (BALF). However, this dose-dependent increase of neutrophils in the BALF should be diminished in a dose-dependent way in the presence of an effective PDE4-inhibitor.
# Male Wistar rats (HanWistar) from an approved local distributor were used for the experiments. The ordered weight of the animals was in the range of 200-250 g. Animals were fasted overnight before the experiment. A total number of 32 animals were used for each experiment. Eight animals (n=8) per dose were used for the treatment groups, […].
# The animals of the LPS-control and of the negative control groups received“vehicle only” (“vehicle only” corresponds to 10 ml/kg body weight 0.5% Natrosol solution). The other groups were treated with the different doses of either Example compound 1, Example compound 2, Prior art compound A or Prior art compound D respectively (see Table D).
# The amount of compound for the highest concentration tested for each compound was suspended in 10 ml 0.5% Natrosol (Hydroxyethylcellulose) solution and then diluted to the respective concentrations as shown in Table D. The respective compound suspension or “vehicle only” (10 ml/kg body weight 0.5% Natrosol solution) was administered orally by gavage. The resulting doses of the individual compounds corresponded to Table D:
# One hour (0.5 hour for Prior art compound A and for Prior art compound D) after compound application (time set to allow for sufficient exposure as guided by prior pharmacokinetic experiments) the animals were exposed to nebulised/aerosolized LPS. The whole body exposure of 12 animals each was performed in a plexi glas chamber. Animals were separated/individualized with perforated metal plates. The aerosol was generated with a commercially available nebuliser (PARI Master+PARI LL nebuliser (Pari GmbH). The concentration of the nebulized LPS-solution was 1 mg/ml air. The duration of the LPS exposure was 30 minutes.
# 4 hours after the end of LPS exposure animals were anesthetised with Isoflorane and euthanised thereafter by cervical dislocation. The trachea was cannulated and BALF was performed using 2×5 mL lavage buffer (phosphate buffered saline (PBS)+2% BSA).
# Determination of neutrophil content of the BALF was performed using an ADVIA 120 blood hemacytometer (Bayer Diagnostics). Neutrophil data were normalised (Positive Control (=LPS treatment alone)=100%, Negative Control (no LPS treatment, administration of “vehicle only”)=0%) and expressed as percent of LPS control. The ED50 was calculated using a nonlinear fit (with the Graph Pad Prism software and a sigmoidal dose response fit).
# The ED50-value is the half-maximal effective dosis of the compound in question with respect to its inhibition of an LPS-induced neutrophil influx into BALF. Consequently a very small ED50-value stands for a good capability of the respective compound to prevent neutrophil influx into the lung tissue after LPS exposure and therefore for a good capacity of the respective compound to prevent inflammation of the lung tissue. […]
# [2] = Gastric emptying and gastrointestinal transit in conscious rats (barium sulfate test meal); format: in vivo, Wistar rats; conditions: for intestinal transit versus negative control: doses up to 30-fold ED50 dose p.o.
# Procedure: In order to evaluate whether the compounds of the present invention lead to gastrointestinal side effects the compounds of the invention have been administered to rats 30 minutes before the rats were fed with a test meal comprising barium sulfate. After that it was tested whether gastric emptying and/or gastrointestinal transit in these rats was affected by the presence of these compounds.
# The effects of the compounds Example 1 and Example 2 on gastric emptying and gastrointestinal transit in conscious rats has been investigated as described below. Wistar rats of both sexes weighing 130-160 g (ages: male 7 wk, female 8 wk) were used. The animals are obtained from an approved local distributor, a minimum of four days quarantine is required before use, during which time the animals are maintained under routine animal care procedures. Groups of up to 5 animals are housed in cages in a room with controlled temperature and humidity and a light/dark cycle with the lights on from 6 a.m. to 6 p.m. The animals have access to normal rodent chow and water ad libitum. The animals are transported to the laboratory on the day of experimentation. Gastric emptying as well as small intestinal propulsion are determined using a barium sulfate test meal. Five rats Crl:WI(Han) of each sex (n=10) were used. The animals were deprived of food 17 h prior to the experiment but allowed free access to water.
# The drug under investigation (drug was suspended to the concentration of 10 ml/kg body weight in 0.5% Natrosol solution) or the negative control (vehicle alone was given 10 ml/kg body weight) was administered 30 min. (p.o.) before the test meal at doses calculated to be 3-fold, 10-fold or 30-fold the ED50 found in efficacy studies in the rat.
# The test meal (suspension of 7.5 g barium sulfate in 10 ml salt-free water) is given orally by gavage at a dose of 2 ml/100 g body weight. Thirty minutes after the administration of the test meal the animals were killed in deep isoflurane anaesthesia by cervical dislocation. The stomach and the intestine were then exposed by laparatomy and removed.
# The removed stomach was weighed, then incised, the contents removed and the empty stomach is weighed again.
# The length of gut traversed with barium sulfate in relation to the whole length of the gut is determined by direct measurements using a ruler.
# The gastric content was calculated from the weight difference between the filled and empty stomach and normalized to 100 g body weight. Thus, an increase in weight difference indicated an impaired gastric emptying, whereas a decrease in weight difference indicated an enhanced gastric emptying.
# The length of gut traversed with barium sulphate (as judged by visual inspection) in relation to the whole length of the gut (from the pylorus to the rectum) is determined by direct measurements using a ruler.
# Intestinal transit is calculated as the percentage movement of barium sulphate in the intestine in relation to the whole length of the gut. Consequently an increased intestinal transit length indicated an accelerated intestinal transit whereas a decreased intestinal transit length indicated decelerated intestinal transit.
# Data are expressed as mean±standard deviation (SD). For each dose, comparisons were performed using an analysis of variance (ANOVA) and a post hoc Dunnett test to compare the various groups to the controls when the ANOVA was significant. p<0.05 was considered significant.
# [3] = all tested doses up to 30-fold ED50 dose p.o.
"gastric emptying versus negative control ([2]; 3-fold ED50 dose p.o., 30 min before test meal)","gastric emptying versus negative control ([2]; 10-fold ED50 dose p.o., 30 min before test meal)",Structure (SMILES),"ED50 (half-maximal effective dose), inhibition of LPS-induced neutrophil influx into BALF [1]",ED50 found in efficacy studies in the rat (restated in dose table) [1],"gastric emptying versus negative control [2, 3]",intestinal transit versus negative control [2],"gastric emptying versus negative control ([2]; 30-fold ED50 dose p.o., 30 min before test meal)"
,,"[O-][S+]1CCc2nc(N3CCC(c4cccc(Cl)c4)CC3)nc(NC3(CO)CC3)c21 (stereo not shown) [Prior art compound D, reference compound]",6.66 mg/kg body weight,,,,
,,"[O-][S+]1CCc2nc(N3CCC(c4ncc(Cl)cn4)CC3)nc(NC3(CO)CCC3)c21 (single isomer, unassigned) [Example 2]",0.1 mg/kg body weight,(ED50 = 0.1 mg/kg BW,neither showed a substantially enhanced or impaired gastric emptying; also recorded: no relevant differences,nor a substantially accelerated or decelerated intestinal transit; also recorded: no relevant differences,
,,"[O-][S+]1CCc2nc(N3CCC(c4ccc(Cl)cc4)CC3)nc(NC3(CO)CC3)c21 (stereo not shown) [Prior art compound A, reference compound]",1.13 mg/kg body weight,,,,
no relevant differences,no relevant differences,"[O-][S+]1CCc2nc(N3CCC(c4ccc(Cl)cc4)CC3)nc(NC3(CO)CCC3)c21 (single isomer, unassigned) [Example 1]",0.31 mg/kg body weight,(ED50 = 0.31 mg/kg BW,neither showed a substantially enhanced or impaired gastric emptying,nor a substantially accelerated or decelerated intestinal transit; also recorded: no significant differences,only a very moderate enhancement of the weight difference per body weight
